Results reported in ChEMBL document CHEMBL1649431, “Molecular mechanisms of macrolide resistance in clinical isolates of Mycoplasma pneumoniae from China” (2009).
≈ marks a conversion by molar mass, not a printed value.

Columns and labels:
[1] = test system: Mycoplasmoides pneumoniae; test: Antimicrobial activity against Mycoplasma pneumoniae FH by microdilution method; assay type: functional
[2] = test system: Mycoplasmoides pneumoniae; test: Antimicrobial activity against Mycoplasma pneumoniae clinical isolate harboring point mutations in 23S rRNA at positions 2063 and 2064 isolated from human respiratory tract by microdilution method; assay type: functional

## CC[C@H]1OC(=O)[C@H](C)[C@@H](O[C@H]2C[C@@](C)(OC)[C@@H](O)[C@H](C)O2)[C@H](C)[C@@H](O[C@@H]2O[C@H](C)C[C@H](N(C)C)[C@H]2O)[C@](C)(O)C[C@@H](C)C(=O)[C@H](C)[C@@H](O)[C@]1(C)O [ERYTHROMYCIN]
[1]
  MIC: 0.01 µg/mL (≈ 0.0136 µM)
[2]
  MIC: 0.01 µg/mL (≈ 0.0136 µM)
  MIC50: 128 µg/mL (≈ 174 µM)
  MIC90: 512 µg/mL (≈ 698 µM)

## CC[C@H]1OC(=O)[C@H](C)[C@@H](O[C@H]2C[C@@](C)(OC)[C@@H](O)[C@H](C)O2)[C@H](C)[C@@H](O[C@@H]2O[C@H](C)C[C@H](N(C)C)[C@H]2O)[C@](C)(O)C[C@@H](C)CN(C)[C@H](C)[C@@H](O)[C@]1(C)O [AZITHROMYCIN]
[1]
  MIC: 0.001 µg/mL (≈ 0.00134 µM)
[2]
  MIC: 0.001 µg/mL (≈ 0.00134 µM)
  MIC50: 128 µg/mL (≈ 171 µM)
  MIC90: 256 µg/mL (≈ 342 µM)

## CO[C@@H]1[C@@H](O[C@@H]2O[C@H](C)[C@@H](O[C@H]3C[C@@](C)(O)[C@@H](OC(=O)CC(C)C)[C@H](C)O3)[C@H](N(C)C)[C@H]2O)[C@@H](CC=O)C[C@@H](C)[C@@H](O)/C=C/C=C/C[C@@H](C)OC(=O)C[C@H]1OC(C)=O [JOSAMYCIN]
[1]
  MIC: 0.1 µg/mL (≈ 0.121 µM)
[2]
  MIC: 0.01 µg/mL (≈ 0.0121 µM)
  MIC50: 32 µg/mL (≈ 38.6 µM)
  MIC90: 64 µg/mL (≈ 77.3 µM)
